From patent US9645128B2, “Substituted imidazo[1,2-A]pyrazines for measuring a transcription activity” (JNC CORPORATION, priority 2009, dated 2017)

Experiments:
[1] = target: T1, 19 kDa protein of Oplophorus luciferase (Oplophorus gracilirostris, UniProt Q9GV45); assay: Substrate specificity, luminescence activity and emission spectra of the 19 kDa protein of Oplophorus luciferase; type: biochemical, Oplophorus gracilorostris; conditions: for Maximum emission wavelength λmax (nm) / Luminescence capacity 10 secs. (%) / Luminescence activity Imax (%): Oplophorus luciferase; for Maximum emission wavelength λmax (nm): 22 to 25° C.; for Luminescence capacity 10 secs. (%): emission integrated for 10 seconds; for Luminescence capacity 10 secs. (%) / Luminescence activity Imax (%): coelenterazine = 100.0; for Quality as luminescence substrate for Oplophorus luciferase: TABLE 2
T1 construct: made in house
T1 sequence (Q9GV45 28-196): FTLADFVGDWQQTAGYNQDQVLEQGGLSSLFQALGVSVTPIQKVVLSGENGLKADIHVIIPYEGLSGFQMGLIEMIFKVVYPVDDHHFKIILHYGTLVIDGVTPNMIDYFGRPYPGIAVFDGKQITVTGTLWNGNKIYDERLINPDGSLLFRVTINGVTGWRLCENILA

[2] = target: T2, Renilla luciferase (Renilla reniformis, UniProt P27652); assay: Substrate specificity, luminescence activity and emission spectra of Renilla luciferase; type: biochemical; conditions: for Maximum emission wavelength λmax (nm) / Luminescence activity Imax (%) / Luminescence capacity 10 secs. (%): Renilla luciferase; for Maximum emission wavelength λmax (nm): 22 to 25° C.; for Luminescence activity Imax (%) / Luminescence capacity 10 secs. (%): coelenterazine = 100.0; for Ability to act as substrate for Renilla luciferase: TABLE 4
T2 construct: made in house
T2 sequence (P27652 1-311): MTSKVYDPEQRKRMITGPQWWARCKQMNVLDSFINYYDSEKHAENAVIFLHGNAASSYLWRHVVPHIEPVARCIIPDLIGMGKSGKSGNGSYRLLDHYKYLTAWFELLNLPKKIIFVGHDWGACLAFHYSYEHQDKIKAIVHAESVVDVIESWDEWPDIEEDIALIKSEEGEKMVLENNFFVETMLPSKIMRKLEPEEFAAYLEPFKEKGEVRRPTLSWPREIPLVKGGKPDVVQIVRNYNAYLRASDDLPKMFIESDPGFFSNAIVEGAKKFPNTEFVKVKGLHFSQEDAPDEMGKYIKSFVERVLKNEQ
Excerpt: Res. Commun. (1997) 233: 349-353, which was provided for use.

[3] = target: T3, recombinant apoaequorin (Aequorea victoria, UniProt P07164); assay: Luminescence patterns and half decay time of semi-synthetic aequorins; type: biochemical; parameters: purchased Chisso Corporation; conditions: for Half decay time sec.: semi-synthetic aequorin, time to reach half of the maximum luminescence intensity
T3 sequence (P07164 other isoform, or with tags, fused parts or gaps with the stated changes): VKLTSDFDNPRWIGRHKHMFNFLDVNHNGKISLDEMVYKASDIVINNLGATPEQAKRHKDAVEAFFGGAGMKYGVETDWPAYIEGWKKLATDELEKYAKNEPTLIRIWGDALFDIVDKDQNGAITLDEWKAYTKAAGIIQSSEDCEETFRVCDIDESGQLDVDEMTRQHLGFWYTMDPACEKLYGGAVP
Experimental: The dilution was dispensed into a 96-well microplate (Nunc #236108) in 5 μl/well. […] The luminescence patterns for 60 seconds were measured to determine the half decay time of luminescence (time period to reach the half of the maximum luminescence intensity).

[4] = target: T3, recombinant apoaequorin; assay: Calcium standard curve with semi-synthetic aequorins; type: biochemical; parameters: purchased Chisso Corporation; conditions: Imax versus 10^-3 M to 10^-8 M calcium
Experimental: The dilution series was prepared by the serial process above to prepare standard calcium solution of 10^−3 M to 10^−8 M.
The semi-synthetic aequorin obtained was concentrated using Amicon Ultra-4 (manufactured by Millipore, molecular weight cut off, 10.000).
This semi-synthetic aequorin solution (2.5 mg/ml) was diluted with 20 mM Tris-HCl (pH 7.6) containing 0.1% BSA (manufactured by Sigma), 0.01 mM EDTA and 150 mM NaCl.
The calcium standard solution prepared as described above was dispensed into a 96-well microplate (Nunc #236108) in 50 μl/well, and the semi-synthetic aequorin solution diluted was injected in […]. The luminescence intensity was measured for 60 seconds using a luminescence plate reader Centro LB960 (manufactured by Berthold) and expressed in terms of the maximum luminescence intensity (Imax). The luminescence intensity was measured for each semi-synthetic aequorin in the same fashion. Based on the maximum luminescence intensity (Imax) obtained, the calcium standard curve for each semi-synthetic aequorin was prepared.

[5] = target: T3, recombinant apoaequorin; assay: Emission spectra of semi-synthetic aequorins by addition of calcium ions; conditions: for Emission spectra of semi-synthetic aequorins compared with known analogs (FIG. 3): compared to h-CTZ and i-CTZ; for Maximum emission wavelength λmax (nm): semi-synthetic aequorin, 22 to 25° C.
Experimental: In a quartz cell with an optical path length of 10 mm, 1 ml of 50 mM Tris-HCl (pH 7.6) containing 1 mM EDTA and 100 μl (100 μg protein) of a solution of the regenerated semi-synthetic aequorin were charged and they were mixed. Subsequently, 100 μl of 50 mM Tris-HCl (pH 7.6) containing 0.1 ml of 10 mM calcium chloride solution was added to the mixture to trigger the luminescence reaction. The spectra were measured on a spectrofluorimeter (FP-6500, manufactured by JASCO Corporation) with the excitation source turned off. The measurement conditions used were as follows: band width, 20 nm; response, 0.5 second and scan speed, 2000 nm/min at 22 to 25° C.

[6] = test system: Gaussia luciferase; assay: Substrate specificity, luminescence activity and emission spectra of Gaussia luciferase; conditions: for Luminescence activity Imax (%) / Luminescence capacity 10 secs. (%): Gaussia luciferase, coelenterazine = 100.0
Experimental: The luminescence activity was measured for 10 seconds using a luminometer Luminescencer-PSN AB2200 (manufactured by Atto Co., Ltd.). The luminescence activity was measured 3 times and expressed as the maximum intensity (Imax) of luminescence.

[7] = target: T3, recombinant apoaequorin; assay: Production of semi-synthetic aequorins and measurement of luminescence activity (Imax, luminescence capacity); conditions: regeneration 0.5 to 18 hours at 4° C.
Experimental: In order to confirm the regeneration time and regeneration efficiency from apoaequorin to the semi-synthetic aequorin, the luminescence activity was assayed at the respective points of the regeneration process (at the respective points of 0.5, 1, 1.5, 2, 3 and 18 hours from the start of regeneration).
Specifically, the luminescence activity described above was measured as follows. The luminescence reaction was started by adding 100 μl of 50 mM Tris-HCl (pH 7.6) containing 50 mM calcium chloride solution to 2 μl of a solution of the semi-synthetic aequorin at each regeneration process. The luminescence activity was measured for 10 seconds with a luminometer Luminescencer-PSN AB2200 (manufactured by Atto Co., Ltd.). The measured values were represented as the maximum intensity (Imax) of luminescence. The emission for 60 seconds was integrated, which was made a luminescence capacity.

| SMILES | Maximum emission wavelength λmax (nm) [1] [nm] | Luminescence capacity 10 secs. (%) [1] [%] | Luminescence activity Imax (%) [1] [%] | Quality as luminescence substrate for Oplophorus luciferase [1] | Maximum emission wavelength λmax (nm) [2] [nm] | Luminescence activity Imax (%) [2] [%] | Luminescence capacity 10 secs. (%) [2] [%] | Ability to act as substrate for Renilla luciferase [2] | melting point | Half decay time of luminescence compared with CTZ ([3]; semi-synthetic aequorin (FIG. 2, TABLE 1)) | Half decay time sec. [3] [s] | Calcium standard curve with semi-synthetic aequorin (FIG. 4) [4] | Emission spectra of semi-synthetic aequorins compared with known analogs (FIG. 3) [5] | Maximum emission wavelength λmax (nm) [5] [nm] | Luminescence activity Imax (%) [6] [%] | Luminescence capacity 10 secs. (%) [6] [%] | Quality as luminescence substrate for Gaussia luciferase ([6]; TABLE 3) | Ability to act as luminescence substrate for semi-synthetic aequorins (FIG. 1) [7] |
| --- | --- | --- | --- | --- | --- | --- | --- | --- | --- | --- | --- | --- | --- | --- | --- | --- | --- | --- |
| Cc1ccc(Cc2nc3c(Cc4ccccc4)[nH]c(-c4ccc(O)cc4)cn-3c2=O)cc1 [me-CTZ, me-coelenterazine] | 454.4 | 82.7 | 46.6 | relatively good luminescence substrates | 472.0 | 6.6 | 7.0 | can be substrates for Renilla luciferase | 150 to 152 °C (dec.) | longer than CTZ | 5.00 | calcium standard curves can be prepared | exhibit different emission spectra from those of known coelenterazine analogs | 469.5 | 4.5 | 5.9 | effective luminescence substrates | can be luminescence substrates for semi-synthetic aequorins |
| COc1ccc(Cc2nc3c(Cc4ccccc4)[nH]c(-c4ccc(O)cc4)cn-3c2=O)cc1 [meo-CTZ, meo-coelenterazine] | 454.5 | 108.6 | 68.1 | relatively good luminescence substrates | 472.5 | 8.0 | 8.6 | can be substrates for Renilla luciferase | 137 to 139 °C (dec.) |  | 1.63 | calcium standard curves can be prepared | exhibit different emission spectra from those of known coelenterazine analogs | 469.0 | 13.6 | 15.5 |  | can be luminescence substrates for semi-synthetic aequorins |
| CC(c1ccccc1)c1nc2c(Cc3ccccc3)[nH]c(-c3ccc(O)cc3)cn-2c1=O (centres unmarked) [αmeh-CTZ, αmeh-coelenterazine] | 457.0 | 19.0 | 15.6 | relatively good luminescence substrates |  | 0.0 | 0.0 |  | 143 to 145 °C (dec.) |  | 0.35 | calcium standard curves can be prepared |  | 467.5 | >0.01 | >0.01 |  | can be luminescence substrates for semi-synthetic aequorins |
